Results reported in patent US8771716B2, “Modified release analgesic suspensions” (McNeil-PPC, Inc., priority 2006, dated 2014).

Columns and labels:
[1] = Typical duration of action (period of therapeutic effect) of an immediate release dose, from labeling; format: in vivo
From the text: As used herein, “ATDAIRD” shall mean the average therapeutic duration of action of an effective immediate release dose” of a particular active ingredient. […] The therapeutic duration of action of a particular active ingredient can readily be determined from the dosing instructions in the labeling for immediate release products containing that particular active ingredient.

[2] = decongestant; typically administered every 2 to 4 hours; cited from earlier work

SMILES	ATDAIRD (average therapeutic duration of action of an effective immediate release dose) [1]	duration of therapeutic effect [2]
CC(C)Cc1ccc(C(C)C(=O)O)cc1 (centres unmarked) [ibuprofen, 2-(4-isobutylphenyl)-propionic acid]	5 h	–
CC(C(=O)O)c1cccc(C(=O)c2ccccc2)c1 (centres unmarked) [ketoprofen]	5 h	–
CNC[C@H](O)c1cccc(O)c1 [phenylephrine, benzynemethanol, 3-hydroxy-α-[(methylamino)methyl]]	–	about 2.5 hours
CN[C@@H](C)[C@@H](O)c1ccccc1 [psuedoephedrine]	about 3 hours	–
COc1ccc2cc([C@H](C)C(=O)O)ccc2c1 [naproxen]	10 h	–
